Test results reported in US20150018384A1, “TREATMENT FOR HIGH CHOLESTEROL” (FibroGen, Inc., priority 2012, published 2015).
Entries after “also recorded” stand apart in the source; their conditions may differ.

Experiments:
ApoE deficient mice [1] = assay: High cholesterol mouse model, ApoE deficient mice, 2 weeks; format: in vivo; details: Compound 60 mg/kg three times a week for two weeks, n=10/group, FIG. 22
Description: (§1) Ten-week-old male apoE knockout mice (Jackson Laboratories, Bar Harbor, Me.) were fed a normal chow diet (0.02% cholesterol, 13.5% fat by weight; LabDiet). […] After 2 weeks of acclimatization, whole blood was collected for baseline measurement before administration of test reagents. […] The animals were sacrificed at end of study.
ApoE deficient mice as described in Example 10 were used to test the effect of various compounds on cholesterol levels. […] A statin compound (rosuvastatin) was also tested. Blood samples were collected at the end of the study and total cholesterol blood levels were tested. A group of 10 mice was sacrificed at the beginning of the study for a baseline total cholesterol measurement. […] Typically statins show mixed results in this model and are not very effective to reduce cholesterol in mice (Bea et al. 2003 Atherosclerosis 167:187-194).

[2] = test system: genes involved in cholesterol biosynthesis in DIO mice liver; assay: Microarray expression of cholesterol biosynthesis genes in liver of DIO mice; format: in vivo, mouse; details: 60 mg/kg three times a week, 4 weeks of dosing, relative to vehicle treated mice
Experimental: (§2) A number of PHI compounds were evaluated for their effect on the expression of cholesterol biosynthesis genes in mouse liver. […] Liver tissue was harvested and stored in RNALater (Life Technologies). Total RNA was isolated with Trizol (Life Technologies) and purified with RNEasy96 (Qiagen) according to the manufacturers' protocols. RNA concentration was measured by NanoDrop (Thermo), and quality was assessed by Bioanalyzer (Agilent).
(§3) Biotinylated microarray probe was prepared using the 3′IVT Express kit (Affymetrix) and hybridized to mouse 430A 2.0 arrays as recommended in the manufacturer's protocol. Arrays were stained, washed, and scanned using Affymetrix equipment and software. Three arrays were run for each treatment and time point, each representing the liver sample from one individual animal.
(§4) For microarray analysis, RNA from animals in each treatment group was pooled in pairs (n=3 pairs for 4 h vehicle, n=2 pairs for all other treatment groups, for a total of 13 arrays per compound study). This approach was used to improve the signal-to-noise ratio on microarrays. Biotinylated probe was prepared using the One-Cycle cDNA synthesis kit (Affymetrix) and hybridized to mouse 430A 2.0 arrays as recommended in the manufacturer's protocol. Arrays were stained, washed, and scanned using Affymetrix equipment and software.
(§5) Array quality was assessed with GeneChip Operating System and/or Command Console software (Affymetrix). CEL files were uploaded to GeneSpring 7.3.1 (Agilent) using GC-RMA baseline correction. Principal Components Analysis was used to identify and reject outlier arrays. Data are reported as fold-change compared to timepoint-matched vehicle controls from the same study. Values less than 1.0 indicate a reduction of RNA in the treated animal liver tissue.
Liver tissue was collected as described in Example 6 from DIO mice at the end of the study (4 weeks of dosing) described in Example 12. RNA isolation and microarray analysis were carried out as described in Example 6. The expression of 16 genes involved in cholesterol biosynthesis in mice treated with Compound B, Compound E, or Compound D, relative to that in the vehicle treated mice, is shown in Table 7.

cynomolgus monkeys = assay: Cholesterol levels after repeated oral administration in monkey toxicity studies; format: in vivo, cynomolgus monkey; details: 28-Day study, daily oral dosing 1, 10 and 30 mg/kg, day 28
Experimental: During these studies monkeys were fasted prior to each blood collection. Plasma samples were then evaluated at pre-dose and at different time-points for levels of total cholesterol.

ApoE deficient mice [3] = assay: Cholesterol reduction and erythrogenesis in ApoE deficient mice, 4 weeks; format: in vivo, mouse; details: orally 2, 20, 60 or 100 mg/kg three times a week for 4 weeks, n=8/group
Experimental: as §1
Total cholesterol and hemoglobin were measured weekly.

[4] = test system: Cholesterol Biosynthesis Genes in the Mouse Liver; assay: Microarray expression of cholesterol biosynthesis genes in mouse liver; format: in vivo; details: 10 mg/kg oral
Experimental: as §2, §3
Animals were sacrificed 4 h or 8 h later. Each compound was tested in a separate animal study with separate controls. Liver tissue was harvested and stored in RNALater (Life Technologies). Total RNA was isolated with Trizol (Life Technologies) and purified with RNEasy96 (Qiagen) according to the manufacturers' protocols. RNA concentration was measured by NanoDrop (Thermo), and quality was assessed by Bioanalyzer (Agilent).
as §4, §5

[5] = test system: subjects with end-stage renal disease (ESRD) receiving maintenance hemodialysis; assay: Study 2: phase 2 study of compound A vs EPO in ESRD subjects on maintenance hemodialysis; format: in vivo, human; details: treated for 19 weeks, FIG. 2
Experimental: Total cholesterol and lipid panels were measured by standard procedures.
Total cholesterol was measured from all subjects in Study 1 or Study 2 as part of the chemistry panel at prespecified time points.
Frozen serum samples, collected from subjects in Study 1 or Study 2, were selected for the lipid panel analysis based on the following criteria: 1) with matched baseline (D1W1) and; 2) at least one other time point. The complete lipid panel includes: total cholesterol (TC), HDL, LDL-measured, Triglycerides and VLDL (Calculated). Ratio of HDL/LDL or LDL/HDL were analyzed.
A total of n=20 subjects were selected and assayed for the complete lipid panel as described above. Subjects on this study protocol were not required to fast nor have any diet restrictions.

[6] = test system: subjects with end stage renal disease (ESRD); assay: ESRD subjects switched from epoetin alfa to Compound A or continued on epoetin alfa; format: in vivo, human; details: six weeks
Experimental: Mean total cholesterol change for the Compound A-treated subjects (all cohorts) was a decrease of 15 mg/dL compared to an increase of 18 mg/dL for the epoetin alfa treated subjects.

[7] = test system: subjects with end stage renal disease (ESRD); assay: as above; format: in vivo, human
[8] = baseline, Compound A 3 cohorts n=74, Epoetin alfa n=22

Molecule: O=C(O)CNC(=O)c1nc(Cl)c2ccccc2c1O [Compound B, [(1-Chloro-4-hydroxy-isoquinoline-3-carbonyl)-amino]-acetic acid]
- total cholesterol levels at the end of the study compared to baseline (ApoE deficient mice [1]): trend towards lower total cholesterol
- 3-hydroxy-3-methylglutaryl-Coenzyme A reductase (Hmgcr) expression [2]: 0.20
- 3-hydroxy-3-methylglutaryl-Coenzyme A synthase 1 (Hmgcs1) expression [2]: 0.15
- 7-dehydrocholesterol reductase (Dhcr7) expression [2]: 0.43
- NAD(P) dependent steroid dehydrogenase-like (Nsdhl) expression [2]: 0.34
- acetyl-Coenzyme A acetyltransferase 2 (Acat2) expression [2]: 0.43
- cytochrome P450, family 51 (Cyp51) expression [2]: 0.18
- farnesyl diphosphate farnesyl transferase 1 (Fdft1) expression [2]: 0.30
- farnesyl diphosphate synthetase (Fdps) expression [2]: 0.26
- isopentenyl-diphosphate delta isomerase (Idi1) expression [2]: 0.23
- lanosterol synthase (Lss) expression [2]: 0.38
- mevalonate (diphospho) decarboxylase (Mvd) expression [2]: 0.20
- mevalonate kinase (Mvk) expression [2]: 0.54
- phosphomevalonate kinase (Pmvk) expression [2]: 0.48
- squalene epoxidase (Sqle) expression [2]: 0.21
- sterol-C4-methyl oxidase-like (Sc4mol) expression [2]: 0.13
- sterol-C5-desaturase (fungal ERG3, delta-5-desaturase) homolog (S. cerevisae) (Sc5d) expression [2]: 0.30

Molecule: COc1ccc(Oc2ccc3c(O)c(C(=O)NCC(=O)O)ncc3c2)cc1 [Compound D, {[4-Hydroxy-7-(4-methoxy-phenoxy)-isoquinoline-3-carbonyl]-amino}-acetic acid]
- total cholesterol levels (cynomolgus monkeys): dose-dependent decrease in cholesterol levels
- total cholesterol levels (cynomolgus monkeys; listed as compound D): dose dependent decrease in total cholesterol
- total cholesterol levels at the end of the study compared to baseline (ApoE deficient mice [1]): significantly decreased cholesterol levels
- hemoglobin compared to vehicle-treated (ApoE deficient mice [3]): did not significantly increase hemoglobin at any of the tested doses; also recorded: did not show a significant increase in hemoglobin at any of the doses tested
- total cholesterol (% change from baseline) compared to vehicle-treated (ApoE deficient mice [3]): lower total cholesterol levels; also recorded: significant percent change in total cholesterol from baseline for the 20 mg/kg, 60 mg/kg, and 100 mg/kg doses
- 3-hydroxy-3-methylglutaryl-Coenzyme A reductase (Hmgcr) expression [2]: 0.47
- 3-hydroxy-3-methylglutaryl-Coenzyme A synthase 1 (Hmgcs1) expression [2]: 0.42
- 7-dehydrocholesterol reductase (Dhcr7) expression [2]: 0.76
- NAD(P) dependent steroid dehydrogenase-like (Nsdhl) expression [2]: 1.02
- acetyl-Coenzyme A acetyltransferase 2 (Acat2) expression [2]: 0.72
- cytochrome P450, family 51 (Cyp51) expression [2]: 0.55
- farnesyl diphosphate farnesyl transferase 1 (Fdft1) expression [2]: 0.44
- farnesyl diphosphate synthetase (Fdps) expression [2]: 0.92
- isopentenyl-diphosphate delta isomerase (Idi1) expression [2]: 0.67
- lanosterol synthase (Lss) expression [2]: 0.70
- mevalonate (diphospho) decarboxylase (Mvd) expression [2]: 0.43
- mevalonate kinase (Mvk) expression [2]: 0.77
- phosphomevalonate kinase (Pmvk) expression [2]: 1.14
- squalene epoxidase (Sqle) expression [2]: 0.89
- sterol-C4-methyl oxidase-like (Sc4mol) expression [2]: 0.38
- sterol-C5-desaturase (fungal ERG3, delta-5-desaturase) homolog (S. cerevisae) (Sc5d) expression [2]: 0.42

Molecule: N#Cc1nc(C(=O)NCC(=O)O)c(O)c2c(Oc3ccccc3)cccc12 [Compound E, [(1-Cyano-4-hydroxy-5-phenoxy-isoquinoline-3-carbonyl)-amino]-acetic acid]
- 3-hydroxy-3-methylglutaryl-Coenzyme A reductase (Hmgcr) expression [2]: 0.36
- 3-hydroxy-3-methylglutaryl-Coenzyme A synthase 1 (Hmgcs1) expression [2]: 0.33
- 7-dehydrocholesterol reductase (Dhcr7) expression [2]: 0.52
- NAD(P) dependent steroid dehydrogenase-like (Nsdhl) expression [2]: 0.77
- acetyl-Coenzyme A acetyltransferase 2 (Acat2) expression [2]: 0.69
- cytochrome P450, family 51 (Cyp51) expression [2]: 0.26
- farnesyl diphosphate farnesyl transferase 1 (Fdft1) expression [2]: 0.40
- farnesyl diphosphate synthetase (Fdps) expression [2]: 0.57
- isopentenyl-diphosphate delta isomerase (Idi1) expression [2]: 0.42
- lanosterol synthase (Lss) expression [2]: 0.45
- mevalonate (diphospho) decarboxylase (Mvd) expression [2]: 0.34
- mevalonate kinase (Mvk) expression [2]: 0.58
- phosphomevalonate kinase (Pmvk) expression [2]: 0.74
- squalene epoxidase (Sqle) expression [2]: 0.52
- sterol-C4-methyl oxidase-like (Sc4mol) expression [2]: 0.27
- sterol-C5-desaturase (fungal ERG3, delta-5-desaturase) homolog (S. cerevisae) (Sc5d) expression [2]: 0.34

Molecule: COc1ccc(Cn2cc(Br)c3c(O)c(C(=O)NCC(=O)O)nc(C#N)c32)cc1 [Compound K, {[3-Bromo-7-cyano-4-hydroxy-1-(4-methoxy-benzyl)-1H-pyrrolo[2,3-c]pyridine-5-carbonyl]-amino}-acetic acid]
- 3-hydroxy-3-methylglutaryl-Coenzyme A reductase (Hmgcr) RNA expression ([4]; 4 h): 0.40 fold-change
- 3-hydroxy-3-methylglutaryl-Coenzyme A synthase 1 (Hmgcs1) RNA expression ([4]; 4 h): 0.74 fold-change
- 7-dehydrocholesterol reductase (Dhcr7) RNA expression ([4]; 4 h): 1.13 fold-change
- NAD(P) dependent steroid dehydrogenase-like (Nsdhl) RNA expression ([4]; 4 h): 1.05 fold-change
- acetyl-Coenzyme A acetyltransferase 2 (Acat2) RNA expression ([4]; 4 h): 0.94 fold-change
- cytochrome P450, family 51 (Cyp51) RNA expression ([4]; 4 h): 0.81 fold-change
- farnesyl diphosphate farnesyl transferase 1 (Fdft1) RNA expression ([4]; 4 h): 0.78 fold-change
- farnesyl diphosphate synthetase (Fdps) RNA expression ([4]; 4 h): 1.01 fold-change
- isopentenyl-diphosphate delta isomerase (Idi1) RNA expression ([4]; 4 h): 0.88 fold-change
- lanosterol synthase (Lss) RNA expression ([4]; 4 h): 0.88 fold-change
- mevalonate (diphospho) decarboxylase (Mvd) RNA expression ([4]; 4 h): 0.68 fold-change
- mevalonate kinase (Mvk) RNA expression ([4]; 4 h): 0.92 fold-change
- phosphomevalonate kinase (Pmvk) RNA expression ([4]; 4 h): 0.88 fold-change
- squalene epoxidase (Sqle) RNA expression ([4]; 4 h): 1.46 fold-change
- sterol-C4-methyl oxidase-like (Sc4mol) RNA expression ([4]; 4 h): 0.65 fold-change
- sterol-C5-desaturase (fungal ERG3, delta-5-desaturase) homolog (S. cerevisae) (Sc5d) RNA expression ([4]; 4 h): 0.92 fold-change
- 3-hydroxy-3-methylglutaryl-Coenzyme A reductase (Hmgcr) RNA expression ([4]; 8 h): 0.11 fold-change
- 3-hydroxy-3-methylglutaryl-Coenzyme A synthase 1 (Hmgcs1) RNA expression ([4]; 8 h): 0.30 fold-change
- 7-dehydrocholesterol reductase (Dhcr7) RNA expression ([4]; 8 h): 0.61 fold-change
- NAD(P) dependent steroid dehydrogenase-like (Nsdhl) RNA expression ([4]; 8 h): 0.56 fold-change
- acetyl-Coenzyme A acetyltransferase 2 (Acat2) RNA expression ([4]; 8 h): 0.63 fold-change
- cytochrome P450, family 51 (Cyp51) RNA expression ([4]; 8 h): 0.32 fold-change
- farnesyl diphosphate farnesyl transferase 1 (Fdft1) RNA expression ([4]; 8 h): 0.39 fold-change
- farnesyl diphosphate synthetase (Fdps) RNA expression ([4]; 8 h): 0.37 fold-change
- isopentenyl-diphosphate delta isomerase (Idi1) RNA expression ([4]; 8 h): 0.34 fold-change
- lanosterol synthase (Lss) RNA expression ([4]; 8 h): 0.38 fold-change
- mevalonate (diphospho) decarboxylase (Mvd) RNA expression ([4]; 8 h): 0.20 fold-change
- mevalonate kinase (Mvk) RNA expression ([4]; 8 h): 0.49 fold-change
- phosphomevalonate kinase (Pmvk) RNA expression ([4]; 8 h): 0.96 fold-change
- squalene epoxidase (Sqle) RNA expression ([4]; 8 h): 0.39 fold-change
- sterol-C4-methyl oxidase-like (Sc4mol) RNA expression ([4]; 8 h): 0.21 fold-change
- sterol-C5-desaturase (fungal ERG3, delta-5-desaturase) homolog (S. cerevisae) (Sc5d) RNA expression ([4]; 8 h): 0.24 fold-change

Molecule: Epoetin alfa [reference compound]
- change in total cholesterol from baseline over time [5]: No reduction of total cholesterol
- Total Cholesterol change ([6]; Mean (±SD), Compound A orally three times a week (n=74) or continued epoetin alfa (n=22)): +18 (22) mg/dL
- Mean total cholesterol change, increase [6]: 18 mg/dL
- LDL cholesterol change ([7]; Mean (±SD), six weeks, Compound A orally three times a week (n=74) or continued epoetin alfa (n=22)): +5 (14) mg/dL
- Mean BL LDL Cholesterol [7, 8]: 90.75 mg/dL
- Mean BL Total Cholesterol [7, 8]: 158.41 mg/dL
- mean total cholesterol over the course of treatment ([7]; both groups stratified by BL total cholesterol ≦200 or >200 mg/dL, FIG. 16): increase
- HDL-C ([7]; six weeks): did not change significantly
- Mean change in LDL-C, increase ([7]; six weeks): 5 mg/dL
- mean LDL-C over the course of treatment ([7]; subjects with the higher BL total cholesterol (n=2), FIG. 17): slight decrease
- mean LDL-C over the course of treatment ([7]; subjects with the lower BL total cholesterol (n=20)): increase
